Measured values taken from patent publication EP4733306A1, “NOVEL MODIFIED TRINUCLEOTIDE CAPPING DERIVATIVE, AND MRNA INTO WHICH CAPPING DERIVATIVE IS INTRODUCED” (Elonova Co., Ltd., priority 2023, dated 2025).
“Also recorded” adds a separate entry of the source.

Columns and labels:
HEK 293 cells = test: Luciferase (antigen protein) expression from capped Luciferase mRNA transfected into HEK 293 cells, luminescence readout; assay type: cell-based
Method: HEK 293 cells were cultured in a 60 mL culture plate containing DMEM supplemented with 10% FBS and 1% pen/strep. On the day prior to transfection, the cells were detached using trypsin and resuspended in new medium. The cells were seeded into a 96-well plate. On the next day, when the cells reached 70% confluence, the transfection mixture was prepared and transfection was performed.
The purified mRNA was quantified using a nanodrop spectrophotometer, and the transcription yield for each rNTP combination was compared. For cell transfection, 500 ng of each mRNA was collected and mixed with 5 µL of Opti-MEM. Separately, 0.5 µL of Lipofectamine was mixed with 5 µL of Opti-MEM in another tube and incubated at room temperature for 10 minutes. Then, the mRNA and Lipofectamine mixtures were combined in the same tube and incubated for an additional 5 minutes at room temperature. Finally, the transfection mixture was added to the cells and incubated for 24 hours.
(§1) After the incubation period, the medium was removed, and the cells were lysed using 50 µL of 1X lysis buffer. The cell lysate was transferred into microcentrifuge tubes. For luciferase luminescence analysis, 100 µL of luciferin substrate was added to each sample in a 96-well white plate. Then, 20 µL of each cell lysate sample was added and mixed by pipetting. Finally, the luminescence of luciferase was recorded using a luminometer instrument.
HEK 293 cells were cultured in a 60 mL culture plate containing DMEM supplemented with 10% FBS and 1% pen/strep. On the day prior to transfection, the cells were detached using trypsin and resuspended in fresh medium. The cells were then seeded in a 96-well plate. On the following day, when the cells reached 70% confluence, the transfection mixture was prepared and transfection was performed.
as §1, with “taken for” for “added to”

T7 RNA polymerase = T7 RNA polymerase (Escherichia phage T7, UniProt P00573); test: In vitro transcription of Luciferase template with T7 RNA polymerase in the presence of the capping material (gel); assay type: biochemical; settings: compared with CleanCap (cap 1 commercial)
Method: The concentration of the luciferase template was measured using a nanodrop spectrophotometer. For each transcription reaction, 100 ng of template in 1 µL was placed into a microcentrifuge tube. Then, 1.5 µL of 10X transcription buffer (400 mM Tris-HCl, 60 mM MgCl2, 10 mM DTT, 20 mM spermidine) and 1.5 µL of 100 mM DTT were added to the tube. rATP, rCTP, and rUTP were each used (1 µL, 10 mM). For cap-dependent transcription of luciferase, rGTP was used (1 µL, 2.5 mM). The ratio of capping material was maintained at four times higher than rGTP so as to provide mRNA capped at ≥80%. Accordingly, 1 µL of capping material (10 mM) was added. RNase inhibitor (0.5 µL, 40 U/µL) and T7 RNA polymerase (1 µL, 50 U/µL) were added. Nuclease-free water (4.5-5.5 µL) was added to bring the final volume of the reaction to 15 µL. In the case of modified rNTPs, 10 mM stock solutions were prepared and the corresponding derivatives were added in place of rCTP and rUTP. The reaction was incubated at 37°C for 1 hour, and after 1 hour, 1.8 µL of 10X DNase I buffer (10 mM Tris-HCl, 2.5 mM MgCl2, 0.5 mM CaCl2) and 1 µL of DNase I (2 U/µL) were added to the reaction and incubated for an additional 15 minutes at 37°C to remove all DNA templates.

[1] = Luciferase mRNA capped with the analog, compared with Luciferase mRNA introduced with CleanCap (Luc mRNA Cap1)
[2] = Luciferase mRNA capped with the analog, compared with mRNA introduced with ARCA cap (cap 0) and CleanCap (cap 1 commercial), HEK 293

Chain of T7 RNA polymerase (P00573 whole entry): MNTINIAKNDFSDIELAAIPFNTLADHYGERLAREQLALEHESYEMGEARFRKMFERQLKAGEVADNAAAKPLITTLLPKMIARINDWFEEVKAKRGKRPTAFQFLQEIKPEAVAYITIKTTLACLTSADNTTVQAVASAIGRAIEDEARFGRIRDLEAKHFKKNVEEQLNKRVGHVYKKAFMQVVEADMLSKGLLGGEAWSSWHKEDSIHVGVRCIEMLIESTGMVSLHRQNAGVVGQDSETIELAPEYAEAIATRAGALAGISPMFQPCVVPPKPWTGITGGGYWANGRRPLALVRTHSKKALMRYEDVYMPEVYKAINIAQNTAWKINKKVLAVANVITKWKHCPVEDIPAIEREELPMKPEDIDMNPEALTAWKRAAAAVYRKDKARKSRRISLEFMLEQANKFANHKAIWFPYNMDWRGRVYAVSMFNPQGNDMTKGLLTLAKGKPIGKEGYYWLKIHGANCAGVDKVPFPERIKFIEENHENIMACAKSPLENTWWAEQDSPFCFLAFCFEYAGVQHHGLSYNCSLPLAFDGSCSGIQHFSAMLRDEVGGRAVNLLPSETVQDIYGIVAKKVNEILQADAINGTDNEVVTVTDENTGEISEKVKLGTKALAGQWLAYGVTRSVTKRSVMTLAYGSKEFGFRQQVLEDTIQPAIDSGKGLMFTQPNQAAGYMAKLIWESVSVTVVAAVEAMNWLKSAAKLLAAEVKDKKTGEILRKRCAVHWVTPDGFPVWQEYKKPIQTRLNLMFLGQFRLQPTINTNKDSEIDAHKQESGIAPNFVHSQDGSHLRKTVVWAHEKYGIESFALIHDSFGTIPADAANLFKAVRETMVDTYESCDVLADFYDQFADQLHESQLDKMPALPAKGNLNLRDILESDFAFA

Row | Compound | antigen protein expression efficiency (HEK 293 cells; [2]) | also measured
1 | CO[C@@H]1[C@H](OP(=O)(O)OC[C@H]2O[C@@H](n3cnc4c(=O)[nH]c(N)nc43)[C@H](O)[C@@H]2O)[C@@H](COP(=O)(O)OP(=O)(O)OP(=O)(O)OC[C@H]2O[C@@H](n3c[n+](Cc4ccccc4)c4c(=O)[nH]c(N)nc43)[C@H](O)[C@@H]2O)O[C@H]1n1cnc2c(N)ncnc21 [BzCap1, Guanosine N7-benzyl trinucleotide Cap1] | higher | antigen protein expression efficiency (HEK 293 cells; [1]): higher; antigen protein expression efficiency (HEK 293 cells; mRNA using natural rNTPs, compared with CleanCap, HEK 293): more efficient
2 | CO[C@@H]1[C@H](OP(=O)(O)OC[C@H]2O[C@@H](n3cnc4c(=O)[nH]c(N)nc43)[C@H](O)[C@@H]2O)[C@@H](COP(=O)(O)OP(=O)(O)OP(=O)(O)OC[C@H]2O[C@@H](n3c[n+](Cc4ccc(Cl)cc4)c4c(=O)[nH]c(N)nc43)[C@H](O)[C@@H]2O)O[C@H]1n1cnc2c(N)ncnc21 [^4-ClBn7GpppAmpG, Guanosine N7-4-Cl-benzyl trinucleotide Cap1] | higher | –
3 | CO[C@@H]1[C@H](OP(=O)(O)OC[C@H]2O[C@@H](n3cnc4c(=O)[nH]c(N)nc43)[C@H](O)[C@@H]2O)[C@@H](COP(=O)(O)OP(=O)(O)OP(=O)(O)OC[C@H]2O[C@@H](n3c[n+](Cc4cccs4)c4c(=O)[nH]c(N)nc43)[C@H](O)[C@@H]2O)O[C@H]1n1cnc2c(N)ncnc21 [ThioCap1, Guanosine N7-(thiophen-2-ylmethyl) trinucleotide Cap1 analog] | – | antigen protein expression efficiency (HEK 293 cells; [1]): higher; antigen protein expression efficiency (HEK 293 cells; compared with CleanCap mRNA (Luc mRNA CAP1), in both mRNA using natural rNTPs and mRNA with pseudouridine triphosphate instead of rUTP, HEK 293, 24 hours, listed as ThioCapl): more efficient; also recorded: higher; transcription efficiency (T7 RNA polymerase): similar
4 | CO[C@@H]1[C@H](OP(=O)(O)OC[C@H]2O[C@@H](n3cnc4c(=O)[nH]c(N)nc43)[C@H](O)[C@@H]2O)[C@@H](COP(=O)(O)OP(O)(=S)OP(=O)(O)OC[C@H]2O[C@@H](n3c[n+](Cc4ccccc4)c4c(=O)[nH]c(N)nc43)[C@H](O)[C@@H]2O)O[C@H]1n1cnc2c(N)ncnc21 (single isomer, unassigned) [^Bn7GppspAmpG (D2), Guanosine N7-benzyl β-phosphorothioate trinucleotide Cap1] | higher | –
5 | CO[C@@H]1[C@H](OP(=O)(O)OC[C@H]2O[C@@H](n3cnc4c(=O)[nH]c(N)nc43)[C@H](O)[C@@H]2O)[C@@H](COP(=O)(O)OP(O)(=S)OP(=O)(O)OC[C@H]2O[C@@H](n3c[n+](Cc4ccc(Cl)cc4)c4c(=O)[nH]c(N)nc43)[C@H](O)[C@@H]2O)O[C@H]1n1cnc2c(N)ncnc21 (single isomer, unassigned) [^4-ClBn7GppspAmpG (D1), Guanosine N7-4-Cl-benzyl β-phosphorothioate trinucleotide Cap1] | higher | –
6 | CO[C@@H]1[C@H](OP(=O)(O)OC[C@H]2O[C@@H](n3cnc4c(=O)[nH]c(N)nc43)[C@H](O)[C@@H]2O)[C@@H](COP(=O)(O)OP(=O)(S)OP(=O)(O)OC[C@H]2O[C@@H](n3c[n+](Cc4ccc(Cl)cc4)c4c([O-])nc(N)nc43)[C@H](O)[C@@H]2O)O[C@H]1n1cnc2c(N)ncnc21 (single isomer, unassigned) [^4-ClBn7GppspAmpG (D2), Guanosine N7-4-Cl-benzyl β-phosphorothioate trinucleotide Cap1] | higher | –
7 | CO[C@@H]1[C@H](OP(=O)(O)OC[C@H]2O[C@@H](n3cnc4c(=O)[nH]c(N)nc43)[C@H](O)[C@@H]2O)[C@@H](COP(=O)(O)OP(=O)(O)OP(=O)(O)OC[C@H]2O[C@@H](n3c[n+](Cc4ccccn4)c4c(=O)[nH]c(N)nc43)[C@H](O)[C@@H]2O)O[C@H]1n1cnc2c(N)ncnc21 [PyCap1, Guanosine N7-(pyridin-2-ylmethyl) trinucleotide Cap1 analog] | – | antigen protein expression efficiency (HEK 293 cells; [1]): higher; antigen protein expression efficiency (HEK 293 cells; compared with CleanCap mRNA (Luc mRNA CAP1), in both mRNA using natural rNTPs and mRNA with pseudouridine triphosphate instead of rUTP, HEK 293, 24 hours): higher; antigen protein expression efficiency (HEK 293 cells; compared with CleanCap mRNA (Luc mRNA CAP1), in both mRNA using natural rNTPs and mRNA with pseudouridine triphosphate instead of rUTP, HEK 293, 24 hours, listed as PyCapl): more efficient
8 | CO[C@@H]1[C@H](OP(=O)(O)OC[C@H]2O[C@@H](n3cnc4c(=O)[nH]c(N)nc43)[C@H](O)[C@@H]2O)[C@@H](COP(=O)(O)OP(=O)(O)OP(=O)(O)OC[C@H]2O[C@@H](n3c[n+](Cc4ccccc4)c4c(=O)[nH]c(N)nc43)[C@H](O)[C@@H]2O)O[C@H]1n1cnc2c(NCc3ccccc3)ncnc21 [^Bn7Gppp^Bn6AmpG, Guanosine N^7, adenosine N^6-dibenzyl trinucleotide Cap1] | higher | –
9 | CO[C@@H]1[C@H](OP(=O)(O)OC[C@H]2O[C@@H](n3cnc4c(=O)[nH]c(N)nc43)[C@H](O)[C@@H]2O)[C@@H](COP(=O)(O)OP(=O)(O)OC[C@H]2O[C@@H](n3c[n+](Cc4ccccc4)c4c(=O)[nH]c(N)nc43)[C@H](O)[C@@H]2O)O[C@H]1n1cnc2c(N)ncnc21 [^Bn7GppAmpG, Guanosine N7-benzyl trinucleotide diphosphate Cap1] | higher | –
10 | L-Guanosine N7-benzyl trinucleotide Cap1 [^Bn7LGpppAmpG] | higher | –
11 | CO[C@@H]1[C@H](OP(=O)(O)OC[C@H]2O[C@@H](n3cnc4c(=O)[nH]c(N)nc43)[C@H](O)[C@@H]2O)[C@@H](COP(=O)(O)OP(=O)(O)OP(=O)(O)OC[C@H]2O[C@@H](n3c[n+](Cc4ccccc4)c4c(=O)[nH]cnc43)[C@H](O)[C@@H]2O)O[C@H]1n1cnc2c(N)ncnc21 [^Bn7IpppAmpG, Inosine N7-benzyl trinucleotide Cap1] | higher | –
12 | CO[C@@H]1[C@H](OP(=O)(O)OC[C@H]2O[C@@H](n3cnc4c(=O)[nH]c(N)nc43)[C@H](O)[C@@H]2O)[C@@H](COP(=O)(O)OP(=O)(O)OC[C@H]2O[C@@H](n3c[n+](Cc4ccc(Cl)cc4)c4c(=O)[nH]c(N)nc43)[C@H](O)[C@@H]2O)O[C@H]1n1cnc2c(N)ncnc21 [^4-ClBn7GppAmpG, Guanosine N7-4-Cl-benzyl trinucleotide diphosphate Cap1] | higher | –
13 | CO[C@@H]1[C@H](OP(=O)(O)OC[C@H]2O[C@@H](n3cnc4c(=O)[nH]c(N)nc43)[C@H](O)[C@@H]2O)[C@@H](COP(=O)(O)OP(O)(=S)OP(=O)(O)OC[C@H]2O[C@@H](n3c[n+](Cc4ccccc4)c4c(=O)[nH]c(N)nc43)[C@H](O)[C@@H]2O)O[C@H]1n1cnc2c(N)ncnc21 (single isomer, unassigned) [^Bn7GppspAmpG (D1), Guanosine N7-benzyl β-phosphorothioate trinucleotide Cap1] | higher | –
